Test [1] deals with HCT-116. The test is described as follows: Antiproliferative activity against human HCT-116 cells incubated for 48 hrs by MTT assay. The note with it: HCT-116, 48 h. It is filed as functional, cell-based.
The test system of test [2] is A2780. The test is described as follows: Antiproliferative activity against human A2780 cells incubated for 48 hrs by MTT assay. It is filed as functional, cell-based. The note with it: A2780, 48 h. For orientation: Tetrazolium assays rely on reduction of a dye to a coloured formazan, in cell work by metabolically active cells.
The nature of test [3]: Antiproliferative activity against human A2780/CP70 cells incubated for 48 hrs by MTT assay. It counts as functional, cell-based. The note with it: A2780/CP70, 48 h.
Test [4] is described as follows: Antiproliferative activity against human HCA46 cells incubated for 48 hrs by MTT assay. It counts as functional, cell-based. The note with it: HCA46, 48 h.
Test [5] relates to HT-29. The test is described as follows: Antiproliferative activity against human HT-29 cells incubated for 48 hrs by MTT assay. The note with it: HT-29, 48 h. It is filed as functional, cell-based.
Test [6] in a line: Inhibition of TEAD4 (unknown origin) to YAP (unknown origin) expressed in HEK293 cells incubated for 16 hrs by dual luciferase reporter assay. It is filed as cell-based. As to conditions: Homo sapiens, HEK293, 16 h. On the technique in general: In a reporter assay the amount or activity of a reporter protein is the signal.

Structures are written as SMILES.

As a reminder, the IC50 is the midpoint of a concentration-inhibition curve. Low readings indicate inhibition by little substance, high ones a need for much substance. As to `C=Cc1c(C)/c2[nH]/c1=C\C1=NC(=C\C3=NC(=C\C4=NC(=C5C=CC(C(=O)OC)=C(C(=O)OC)[C@@]45C)\C=2)/C(C)=C3CCC(=O)OC)/C(CCC(=O)O)=C1C`, the IC50 is 14.7 µM in test [1]; 12.4 µM in test [2]; 12.3 µM in test [3]; 5.55 µM in test [4]; 3.1 µM in test [5]; 8.6 µM in test [6].
